Results from PMC12062478, “Screening herbal and natural product libraries to aid discovery of novel allosteric modulators of human P2X7” (Purinergic Signalling, 2024).
pIC50: −log10 of the molar value. Where two headings read alike, the source gives them in different places.

Experiments:
P2X7 [1] = biological target: T1, P2X7 (Homo sapiens, UniProt Q99572); test: ATP-induced YO-PRO-1 dye uptake in HEK-hP2X7 cells; format: cell-based; conditions: for pIC50: HEK-hP2X7, 10 min pre-treatment, read-out: IC50 value (95% CI); for Effect on P2X7 responses: purified glycosides/aglycone from potentiating extracts; for P2X7 response (% of control): compound 10 µM injected 60 s before ATP
T1 construct: expressed in transfected cells
T1 sequence (Q99572 1-595): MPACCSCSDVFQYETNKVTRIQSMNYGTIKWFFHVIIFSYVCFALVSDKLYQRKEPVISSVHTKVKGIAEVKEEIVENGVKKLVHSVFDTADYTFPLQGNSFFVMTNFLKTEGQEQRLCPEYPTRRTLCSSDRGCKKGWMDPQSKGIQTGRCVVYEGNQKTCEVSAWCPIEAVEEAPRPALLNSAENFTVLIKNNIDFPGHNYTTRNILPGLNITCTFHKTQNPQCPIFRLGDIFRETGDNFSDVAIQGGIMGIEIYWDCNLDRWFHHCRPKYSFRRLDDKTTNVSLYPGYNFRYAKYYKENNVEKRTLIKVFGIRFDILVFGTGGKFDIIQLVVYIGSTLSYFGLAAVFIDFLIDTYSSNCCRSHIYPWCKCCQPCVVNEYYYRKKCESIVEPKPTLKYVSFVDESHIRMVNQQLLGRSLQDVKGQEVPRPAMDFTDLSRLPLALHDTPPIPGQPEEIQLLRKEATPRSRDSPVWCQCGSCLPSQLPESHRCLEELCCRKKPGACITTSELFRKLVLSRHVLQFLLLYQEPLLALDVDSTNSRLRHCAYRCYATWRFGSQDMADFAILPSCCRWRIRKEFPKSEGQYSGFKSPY
Protocol: HEK-hP2X7 or HEK-hP2X4 cells were plated at 2.5 × 10^4 cells per well (100 µL volume) the day before experiments into poly-D-lysine (Merck Millipore) coated 96-well plates (NUNC, Fisher Scientific #167-008). The membrane impermeant dye YO-PRO-1 iodide (Life Technologies, Fisher Scientific) was used at a final concentration of 2 µM in low divalent buffer (145 mM NaCl, 5 mM KCl, 0.2 mM CaCl2, 13 mM glucose, 10 mM HEPES, pH 7.3, osm 300–310). Media were removed from the plate, and 90 µL of YO-PRO-1 buffer was added per well. Plates were warmed to 37 °C for 5 min before recording. Data was acquired on a Flexstation 3 plate reader (Molecular Devices) using excitation wavelength 490 nm, emission wavelength 520 nm, and six reads per well (PMT medium). […] […] Pipette height was set to 80 µL and the rate of injection was 4.
YO-PRO-1 dye uptake assay data is plotted as a percentage of control where control responses are measured in the absence of plant extract. Cell viability data is plotted as a percentage of control or background-corrected fluorescence data. Concentration–response graphs were plotted using GraphPad Prism v6 with a non-linear regression fit (variable slope). IC50 values were generated from collated datasets from a minimum of three independent experiments. Statistical differences were determined by one-way ANOVA statistical tests performed using GraphPad Prism v6 with Dunnett’s multiple comparison post hoc test. Significance was taken as P ≤ 0.05.
We acquired a natural product library (Set IV) containing 419 compounds from NCI DTP and tested these on P2X7 responses using a YO-PRO-1 dye uptake in HEK293 cells stably expressing human P2X7 (HEK-hP2X7). […] This allowed us to assess for any immediate effect of the injected compound, and secondly, it allowed for any potential negative modulators to be pre-incubated with P2X7.

P2X7 [2] = biological target: T1, P2X7; test: fura-2 intracellular calcium assay in HEK-hP2X7 cells; format: cell-based; conditions: fura-2-loaded HEK-hP2X7, 10 min pre-treatment, 1 mM ATP
Protocol: Supplementary Figure 3: Validation of P2X7 antagonist activity using a fura-2 assay. HEK-hP2X7 cells were loaded with fura-2AM (2µM) to measure intracellular calcium responses to ATP. Cells were loaded for 45 minutes at 37 °C and then pre-treated with various concentrations of test compounds for 10 minutes. For full methodological details please see [1]. Responses to 1mM ATP were assessed over 300 seconds using a Flexstation 3 plate reader. Ratiometric fura-2 data was converted to area under curve.

hP2X7 [3] = biological target: T2, hP2X7 (Homo sapiens, UniProt Q99572); test: Whole-cell patch-clamp electrophysiology in HEK-hP2X7 cells; format: cell-based; conditions: 10 µM with ATP 100 µM, 5-s application, −60 mV
T2 sequence (Q99572 1-595): T1 sequence (Q99572 1-595)
Protocol: Stably expressing HEK-hP2X7 cells were plated onto 13-mm glass coverslips 24 h prior to use. Membrane currents were recorded in the whole-cell patch-clamp configuration using an EPC10 amplifier (HEKA Elektronik) and borosilicate glass electrodes (TF-150 World Precision Instruments), resistance […] when filled with standard internal solution (145 mM NaCl, 10 mM HEPES, 10 mM EGTA, pH 7.3). Cells were voltage-clamped at − 60 mV, and dialysis of intracellular contents was performed for 1 min prior to experimental procedures. Cells were continuously perfused by gravity feed with standard divalent buffer solution (145 mM NaCl, 5 mM KCl, 2 mM CaCl2, 1 mM MgCl2, 13 mM glucose, 10 mM HEPES, pH 7.3) prior to seal formation, and low divalent buffer solution was used for agonist and PAM application. Agonists were applied using a computer-controlled fast-flow system (RSC-160; Bio-Logic Scientific Instruments) with the perfusion capillaries placed in close proximity to the cell under investigation.
Fig. 6 Dioscin enhances P2X7-dependent pore formation and potentiates channel opening. A Dioscorea nipponica (organic) plant extract (30 µg/mL) increased ATP-dependent YO-PRO-1 iodide uptake. AZ10606120 (10 µM, grey bars) was added to block hP2X7. B YO-PRO-1 uptake following a co-stimulation of HEK-hP2X7 cells with 200 µM ATP ± the named compounds in the presence or absence of AZ10606120. YO-PRO-1 uptake was quantified between 50 and 300 s (n = 5). C Whole-cell patch-clamp recordings were performed at room temperature. Cells were voltage-clamped at − 60 mV, and responses to a 5-s stimulation of ATP (100 µM) followed by a 5-s stimulation of ATP (100 µM) + dioscin/diosgenin (10 µM) were measured from HEK-hP2X7 cells. Representative traces are shown. D Summary of normalised current amplitudes represented as a fold change compared to ATP responses in the absence of dioscin/diosgenin (n = 10–18 cells). E Concentration response to ATP in the presence of dioscin (10 µM, green) or vehicle (DMSO, black) using YO-PRO-1 uptake assay in HEK-hP2X7 and F HEK-293 cells. […]

hP2X7 [4] = biological target: T2, hP2X7; conditions: cited from earlier work
[5] = screen for potential negative allosteric modulators

COc1ccc2cc3[n+](cc2c1OC)CCc1cc2c(cc1-3)OCO2 [Berberine]
pIC50 (P2X7 [1]; ATP 1 mM): 5.29 | P2X7 antagonist activity on ATP-induced calcium responses (P2X7 [2]): demonstrated P2X7 antagonist activity

C[C@@H]1CC[C@@]2(OC1)O[C@H]1C[C@H]3[C@@H]4CC=C5C[C@@H](O)CC[C@]5(C)[C@H]4CC[C@]3(C)[C@H]1[C@@H]2C [Diosgenin, diosgenin]
Effect on P2X7 responses (P2X7 [1]): could not potentiate responses | Potentiation of hP2X7 ion channel opening (hP2X7 [3]): not capable of potentiating P2X7 channel opening

O=C(O[C@@H]1Cc2c(O)cc(O)cc2O[C@@H]1c1cc(O)c(O)c(O)c1)c1cc(O)c(O)c(O)c1 [EGCG, epigallocatechin gallate]
P2X7 antagonist activity on ATP-induced calcium responses (P2X7 [2]): demonstrated P2X7 antagonist activity

Cc1cc(O)c2c(c1)C(=O)c1cc(O)cc(O)c1C2=O [Emodin]
pIC50 (P2X7 [1]; ATP 1 mM): 4.26 | pIC50 (hP2X7 [4]; electrophysiological recordings, read-out: IC50): 5.52

CC(C)=CCC[C@@H](C)C1=C(O)C(=O)C(C)=CC1=O [Perezone]
P2X7 response (% of control) (P2X7 [1]; screen for PAM activity): 148.44 % of control

COc1cc([C@@H]2c3cc4c(cc3[C@H](O)[C@H]3COC(=O)[C@@H]23)OCO4)cc(OC)c1OC [Picropodophyllin]
P2X7 response (% of control) (P2X7 [1]; screen for PAM activity): 145.86 % of control

CC1(C)C[C@]23[C@@H]4COC(=O)[C@H]2CC[C@H]1[C@@H]3CC4=O [Quadrone]
P2X7 response (% of control) (P2X7 [1]; [5]): 40.82 % of control

CO[C@H]1[C@@H](O)[C@@H](C)O[C@@H](OC2CCC3(C)C(CCC4C3C(O)CC3(C)C(C5=CC(=O)OC5)CCC43O)C2)[C@@H]1O (stereo partly shown) [Sarnovid]
P2X7 response (% of control) (P2X7 [1]; [5]): 38.95 % of control

COc1cc2ccc(=O)oc2cc1O [Scopoletin]
Effect on YO-PRO-1 uptake at high concentrations (P2X7 [1]; > 30 µM, HEK-hP2X7): reduction of YO-PRO-1 uptake in hP2X7 cells at high concentrations | pIC50 (P2X7 [1]; ATP 1 mM): 4.40

C=C(NC(=O)C(=C)NC(=O)c1csc(C2=N[C@@H]3c4csc(n4)[C@H]4NC(=O)c5csc(n5)[C@H]([C@](C)(O)[C@@H](C)O)NC(=O)[C@H]5CSC(=N5)/C(=C/C)NC(=O)[C@H]([C@@H](C)O)NC(=O)c5csc(n5)[C@]3(CC2)NC(=O)[C@H](C)NC(=O)C(=C)NC(=O)C(=C)NC(=O)[C@H](C(C)C)N[C@@H]2C=Cc3c([C@H](C)O)cc(nc3[C@H]2O)C(=O)O[C@@H]4C)n1)C(N)=O [Siomycin A]
P2X7 response (% of control) (P2X7 [1]; screen for PAM activity): 157.10 % of control

COC1=C(N)C(=O)c2nc(-c3nc(C(=O)O)c(C)c(-c4ccc(OC)c(OC)c4O)c3N)ccc2C1=O [Streptonigrin]
P2X7 response (% of control) (P2X7 [1]; screen for PAM activity): 139.02 % of control

COc1ccc2c(c1OC)CN1CCc3cc4c(cc3C1C2)OCO4 (stereo not shown) [Tetrahydroberberine]
Effect on ATP-mediated YO-PRO-1 uptake (P2X7 [1]; 10 µM, 10 min pre-incubation, ATP 1 mM): able to reduce ATP-mediated YO-PRO-1 uptake | P2X7 response (% of control) (P2X7 [1]; [5]): 26.9 % of control

CO[C@@H]1/C=C/O[C@@]2(C)Oc3c(C)c(O)c4c(c3C2=O)C(=N[C@@H]2CC[C@@H](O)O[C@H]2C)C=C(NC(=O)/C(C)=C\C(=O)[C@@H]2C[C@@H]2[C@H](O)[C@@H](C)[C@@H](O)[C@@H](C)[C@H](OC(C)=O)[C@@H]1C)C4=O [Tolypromycin Y]
P2X7 response (% of control) (P2X7 [1]; [5]): 47.05 % of control

COc1cc(C=O)ccc1O [Vanilline]
P2X7 response (% of control) (P2X7 [1]; screen for PAM activity): 158.27 % of control

COC(=O)/C(=C1/OC(=O)C(c2ccccc2)=C1O)c1ccccc1 [Vulpinic acid]
P2X7 response (% of control) (P2X7 [1]; screen for PAM activity): 150.3 % of control

CC1=C(C)C(=O)O[C@@H]([C@](C)(O)[C@H]2CC[C@H]3[C@@H]4[C@@H]5O[C@@H]5[C@@]5(O)CC=CC(=O)[C@]5(C)[C@H]4CC[C@]23C)C1 [Withanolide A]
P2X7 response (% of control) (P2X7 [1]; screen for PAM activity): 149.93 % of control

O=C(O)c1cc(O)c(O)c(O)c1 [gallic acid]
pIC50 (hP2X7 [4]; inhibition of hP2X7 currents by electrophysiology, read-out: IC50 value): 5.37

COc1ccc2c(c1)CC=C(CO)c1cc3c(cc1-2)OCO3 [tenuifolin]
Effect on P2X7 responses (P2X7 [1]): no effect on P2X7 responses

COc1cc([C@@H]2c3cc4c(c(O)c3C[C@H]3COC(=O)[C@@H]32)OCO4)cc(OC)c1OC [Β-peltatin]
P2X7 response (% of control) (P2X7 [1]; [5]): 31.98 % of control

Erythromycin cyclopentylproprionate
P2X7 response (% of control) (P2X7 [1]; screen for PAM activity): 126.67 % of control

Hexopyranuronic acid
P2X7 response (% of control) (P2X7 [1]; screen for PAM activity): 147.11 % of control

Medicarpin
P2X7 response (% of control) (P2X7 [1]; screen for PAM activity): 140.60 % of control

Monoacetyl verrucan A
P2X7 response (% of control) (P2X7 [1]; screen for PAM activity): 170.65 % of control

Ossamycin
P2X7 response (% of control) (P2X7 [1]; screen for PAM activity): 145.55 % of control

Predorine
P2X7 response (% of control) (P2X7 [1]; screen for PAM activity): 740.31 % of control

Scopafungin
Sensitivity of the potentiated ATP response to P2X7 antagonist AZ10606120 (P2X7 [1]; AZ10606120 10 µM): could be prevented by pre-treatment with the P2X7 selective antagonist, AZ10606120 | YO-PRO-1 uptake in the absence of ATP (P2X7 [1]; HEK-hP2X7): increase in YO-PRO-1 uptake in the absence of ATP | Effect on ATP concentration–response curve (P2X7 [1]; compound 10 µM): increase the maximum response to ATP and increase the sensitivity to ATP | P2X7 response (% of control) (P2X7 [1]; screen for PAM activity): 159.83 % of control
